Assay results: patent publication US20020169326A1, “Esters and amides as PLA2 inhibitors” (FUJISAWA PHARMACEUTICAL COMPANY, LTD., priority 1995, published 2002)

biological target: T1, human recombinant PLA2 group II enzyme (Homo sapiens, UniProt P14555); experiment: Test on the inhibitory effect against phospholipase A2 (PLA2), fluorescent phospholipid substrate; type: biochemical; conditions: dose 1 × 10^−6 M; 10-pyrene PA-monomethyl ester substrate, room temperature, 10 minutes; read-out: Percent inhibition: inhibition (%)
T1 sequence (P14555 21-144): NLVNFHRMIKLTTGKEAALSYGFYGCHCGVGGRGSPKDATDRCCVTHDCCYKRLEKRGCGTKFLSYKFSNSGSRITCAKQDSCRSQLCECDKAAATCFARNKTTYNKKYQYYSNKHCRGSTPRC
Description: Test on the inhibitory effect against phospholipase A2 (PLA2)
PLA2 activity was assayed with a fluorescent phospholipid analogue [1-palmitoyl-2-(10-pyrenyldecanoyl)-sn-glycero-3-monomethylphosphatidic acid(10-pyrene PA-monomethyl ester)] as a substrate, according to Radvanyi et al. (1989) with several modifications. Briefly, the reaction medium was prepared by sequential addition of 1160 μl of 50 mM Tris-HCl (pH 7.4) buffer containing 100 mM NaCl and 1 mM EDTA, 10 μl of 120 μM 10-pyrene PA-monomethyl ester in ethanol, 10 μl of drug sample in methanol and 10 μl of 1.2 μg/ml human recombinant PLA2 group II enzyme. The enzymatic reaction was then initiated with 10 μl of 0.84 M CaCl2. Following incubation at room temperature for 10 minutes, the reaction was terminated by addition of 25 μl of 1 M EDTA and 10 μl of 10 mg/ml β-cyclodextrin. Fluorescence measurements were carried out with a JASCO Corporation FP-777 spectrofluorometer. Excitation and emission wavelengths were 345 nm and 380 nm, respectively. All data are the average of at least duplicate determinations corrected for the spontaneous fluorescence of the reaction medium. Data were expressed as percent inhibition.
F. Radvanyi, L. Jordan, F. Russo-Marie and C. Bon: A sensitive and continuous fluorometric assay for phospholipase A2 using pyrene-labeled phospholipids in the presence of serum albumin. […]

SMILES | inhibition at 1 µM [%]
NC(=O)C[C@H](Cc1ccc2ccccc2c1)OC(=O)[C@H](CCCC(=O)O)NC(=O)c1cc2ccccc2cc1Cc1ccccc1 [Example 24, (3S)-3-[(2S)-2-(3-Benzylnaphthalen-2-ylcarbonylamino)-5-carboxypentanoyl]oxy-4-(2-naphthyl)butanamide] | 100

tested on: not given; experiment: not given; conditions: not given

SMILES | melting point [°C]
CCCCCCCCCCCCC[C@@H](CC(N)=O)N(CCC)C(=O)[C@H](CCCC(=O)O)NC(=O)c1ccc2ccccc2n1.Cl | 59 to 62
CCCN(C(=O)[C@H](CCC(=O)O)NC(=O)c1cn(Cc2ccccc2Cl)c2ccccc12)[C@H](CC(N)=O)Cc1ccc2ccccc2c1 | 85 to 92
CCCN(C(=O)[C@H](CCCC(=O)O)NC(=O)c1cn(Cc2ccccc2)c2ccccc12)[C@H](CC(N)=O)Cc1ccc2cc(CC)ccc2c1 | 105 to 116
CCCCCCCCC[C@@H](CC(N)=O)N(CCC)C(=O)[C@H](CCCC(=O)O)NC(=O)c1cn(Cc2ccccc2Cl)c2ccccc12 | 145 to 150
CCCC[C@@H](CC(N)=O)N(CCCC)C(=O)[C@H](CCCC(=O)O)NC(=O)c1cn(Cc2cccc3ccccc23)c2ccccc12 | 105 to 113
CCCCCCCCC[C@@H](CC(N)=O)N(CCCCC)C(=O)[C@H](CCCC(=O)O)NC(=O)c1cn(Cc2ccccc2)c2ccccc12 | 125 to 127
CCCCCC[C@@H](CC(N)=O)N(CCC)C(=O)[C@H](CCCC(=O)O)NC(=O)c1cn(Cc2cccc(Cl)c2)c2ccccc12 | 106 to 109
CCCCN(C(=O)[C@H](CCCC(=O)O)NC(=O)c1cn(Cc2ccccc2Cl)c2ccccc12)[C@H](CC(N)=O)Cc1ccc2ccccc2c1 | 104 to 110
CCCN(C(=O)[C@H](CCCC(=O)O)NC(=O)c1cn(Cc2ccccn2)c2ccccc12)[C@H](CC(N)=O)Cc1ccc2cc(CC)ccc2c1 | 110 to 116
CCCCCCCCC[C@@H](CC(N)=O)N(CCC)C(=O)[C@H](CCCC(=O)O)NC(=O)c1cn(Cc2ccccc2)c2ccccc12 | 155 to 160
CCCCCN(C(=O)[C@H](CCCC(=O)O)NC(=O)c1cn(Cc2ccccc2)c2ccccc12)[C@H](CC(N)=O)Cc1ccc2ccccc2c1 | 89 to 93
CCCCCC[C@@H](CC(N)=O)N(CCC)C(=O)[C@H](CCCC(=O)O)NC(=O)c1cn(Cc2ccccn2)c2ccccc12 | 78 to 95
CCCCCC[C@@H](CC(N)=O)N(CCCCC)C(=O)[C@H](CCCC(=O)O)NC(=O)c1cn(Cc2ccccc2)c2ccccc12 | 127 to 129
CCCCCC[C@@H](CC(N)=O)N(CCC)C(=O)[C@H](CCCC(=O)O)NC(=O)c1cn(Cc2ccccc2)c2ccccc12 | 147 to 157
CCCC[C@@H](CC(N)=O)N(CCC)C(=O)[C@H](CCCC(=O)O)NC(=O)c1cn(Cc2cccc3ccccc23)c2ccccc12 | 98 to 116
CCN(C(=O)[C@H](CCCC(=O)O)NC(=O)c1cn(Cc2ccccc2)c2ccccc12)[C@H](CC(N)=O)Cc1ccc2ccccc2c1 | 110 to 112
CCCN(C(=O)[C@H](CCCC(=O)O)NC(=O)c1cn(Cc2cccc3ccccc23)c2ccccc12)[C@H](CC(N)=O)Cc1ccc2ccccc2c1 | 123 to 126
CCCCCC[C@@H](CC(N)=O)N(CCC)C(=O)[C@H](CCCC(=O)O)NC(=O)c1cn(Cc2cccc3ccccc23)c2ccccc12 | 139 to 141
CCCCCCCCCCCCC[C@@H](CC(N)=O)N(CC(C)C)C(=O)[C@H](CCCC(=O)O)NC(=O)c1ccc2ccccc2n1 [Example 149, (3S)-3-[N-Isobutyl-{(2S)-5-carboxy-2-(2-quinolylcarbonylamino)pentanoyl}amino]hexadecanamide] | 65 to 66
CCCCCCCCCCCCC[C@@H](CC(N)=O)N(Cc1ccccn1)C(=O)[C@H](CCCC(=O)O)NC(=O)c1ccc2ccccc2n1.Cl.Cl | 74 to 81
CCCCCN(C(=O)[C@H](CCCC(=O)O)NC(=O)c1cn(Cc2cccc3ccccc23)c2ccccc12)[C@H](CC(N)=O)Cc1ccc2ccccc2c1 | 112 to 116
CCCCc1ccc(C[C@@H](CC(N)=O)N(CCCC)C(=O)[C@H](CCCC(=O)O)NC(=O)c2cn(Cc3ccccc3)c3ccccc23)cc1 | 77 to 82

SMILES | melting point [°C]
CCN(C(=O)[C@H](CCCC(=O)O)NC(=O)c1cn(Cc2cccc3ccccc23)c2ccccc12)[C@H](CC(N)=O)Cc1ccc2ccccc2c1 | 118 to 126
CCCCN(C(=O)[C@H](CCCC(=O)O)NC(=O)c1cn(Cc2ccccc2Cl)c2ccccc12)[C@H](CC(N)=O)Cc1ccc2cc(CC)ccc2c1 | 100 to 116
CCCCCCCc1ccc(C[C@@H](CC(N)=O)N(CCCC)C(=O)[C@H](CCCC(=O)O)NC(=O)c2cn(Cc3ccccc3Cl)c3ccccc23)cc1 | 79 to 81
CCN(C(=O)[C@H](CCCC(=O)O)NC(=O)c1cn(Cc2ccccc2Cl)c2ccccc12)[C@H](CC(N)=O)Cc1ccc2ccccc2c1 | 110 to 114
CCCCc1ccc(C[C@@H](CC(N)=O)N(CCC)C(=O)[C@H](CCCC(=O)O)NC(=O)c2cn(Cc3ccccc3)c3ccccc23)cc1 | 82 to 88
CCCCCC[C@@H](CC(N)=O)N(CC)C(=O)[C@H](CCCC(=O)O)NC(=O)c1cn(Cc2ccccc2)c2ccccc12 | 80 to 85
CCCCCC[C@@H](CC(N)=O)N(CCCC)C(=O)[C@H](CCCC(=O)O)NC(=O)c1cn(Cc2ccccc2)c2ccccc12 | 124 to 127
CCCC[C@@H](CC(N)=O)N(CCCC)C(=O)[C@H](CCCC(=O)O)NC(=O)c1cn(Cc2ccccc2Cl)c2ccccc12 | 105 to 110
CN(CCC(N)=O)C(=O)[C@H](CCCC(=O)O)NC(=O)c1cc2ccccc2cc1Cc1ccccc1 [Example 180, 3-[N-Methyl-{(2S)-2-(3-benzylnaphthalen-2-ylcarbonyl)amino-5-carboxypentanoyl}amino]propanamide] | 147 to 157
CCCC[C@@H](CC(N)=O)N(CCC)C(=O)[C@H](CCCC(=O)O)NC(=O)c1cn(Cc2ccccc2Cl)c2ccccc12 | 95 to 98
CCCN(C(=O)[C@H](CCCC(=O)O)NC(=O)c1cn(Cc2ccccc2Cl)c2ccccc12)[C@H](CC(N)=O)Cc1ccc(C)cc1 | 79 to 96
CCCCCC[C@@H](CC(N)=O)N(CC)C(=O)[C@H](CCCC(=O)O)NC(=O)c1cn(Cc2ccccc2Cl)c2ccccc12 | 180 to 183
CC(C)(C)OC(=O)N[C@@H](CCCC(=O)OCc1ccccc1)C(=O)O[C@H](CC(N)=O)Cc1ccc(-c2ccccc2)cc1 [Example 40, (3S)-3-[(2S)-5-Benzyloxycarbonyl-2-(tert-butoxycarbonylamino)pentanoyl]oxy-4-(4-biphenylyl)butanamide] | 94 to 98
CCCN(C(=O)[C@H](CCCC(=O)O)NC(=O)c1cn(Cc2ccccc2)c2ccccc12)[C@H](CC(N)=O)Cc1ccc2ccccc2c1 | 91 to 94
CCCCCC[C@@H](CC(N)=O)N(CCCC)C(=O)[C@H](CCCC(=O)O)NC(=O)c1cn(Cc2ccccc2Cl)c2ccccc12 | 153 to 156
CCCCN(C(=O)[C@H](CCCC(=O)O)NC(=O)c1cn(Cc2ccccc2)c2ccccc12)[C@H](CC(N)=O)Cc1ccc2ccccc2c1 | 90 to 96
CCCCc1ccc(C[C@@H](CC(N)=O)N(CCC)C(=O)[C@H](CCCC(=O)O)NC(=O)c2cn(Cc3ccccc3Cl)c3ccccc23)cc1 | 83 to 87
CCCCCC[C@@H](CC(N)=O)N(CCC)C(=O)[C@H](CCCC(=O)O)NC(=O)c1cn(Cc2ccccc2Cl)c2ccccc12 | 175 to 180
CCCCN(C(=O)[C@H](CCCC(=O)O)NC(=O)c1cn(Cc2ccccc2)c2ccccc12)[C@H](CC(N)=O)Cc1ccc2cc(CC)ccc2c1 | 100 to 116
CCCCc1ccc(C[C@@H](CC(N)=O)N(CCCC)C(=O)[C@H](CCCC(=O)O)NC(=O)c2cn(Cc3ccccc3Cl)c3ccccc23)cc1 | 166 to 168
Cc1ccc(Cn2c(C(=O)N[C@@H](CCCC(=O)O)C(=O)O[C@H](CC(N)=O)Cc3ccc4ccccc4c3)cc3ccccc32)cc1 [Example 165, (3S)-3-[(2S)-5-Carboxy-2-[{1-(4-methylbenzyl)indol-2-ylcarbonyl}amino]pentanoyl]oxy-4-(2-naphthyl)butanamide] | 86 to 90
CCCN(C(=O)[C@H](CCCC(=O)O)NC(=O)c1cn(Cc2ccccc2)c2ccccc12)[C@H](CC(N)=O)Cc1ccc(C)cc1 | 83 to 92
